Where “and” joins values, the source holds several entries; their conditions need not be identical. Equal entries are not always repeated. Where two headings read alike, the source gives them in different places.
How the values were obtained:
Vero cells = settings: Vero 24 h 5% FBS
HMGB1, GLDH, SELP = experiment: Candidate safety biomarker analysis in hamster serum (IA-LC-MS/MS); type: in vivo, Syrian hamsters
Procedure: Serum samples from hamsters collected at pre- infection (0 dpi) and post-infection (4 dpi) and treatment time points were analyzed to evaluate the levels of various candidate safety biomarkers. Serum proteins were enzymatically fragmented through proteolysis, and protein-specific peptides were targeted for quantification of the corresponding protein biomarker levels by immunoaffinity liquid chromatography tandem mass spectrometry (IA-LC-MS/MS) performed as described previously ([48], [49]). For further details, see Supplementary Methods .
The candidate protein biomarkers were quantified via specific peptides analyzed by immunoaffinity liquid chromatography tandem mass spectrometry (IA-LC-MS/MS) assays. For proteolysis, 10 μL of each serum sample was mixed with 50 μL of digestion buffer (100 mM triethanolamine and 0.5% (w/v) n-octylglucoside (NOG)), and proteolysis reagents were added to achieve a final sample volume of 100 µL. The proteolysis procedure included denaturation at 99 °C for 5 minutes, reduction in 5 mM tris(2-carboxyethyl)-phosphine at 22 °C for 5 minutes, alkylation in 10 mM iodoacetamide at 22 °C for 20 minutes and an overnight enzymatic fragmentation at 37 °C with a trypsin-to-protein ratio of 1:20 (assuming a concentration of 60 mg/mL protein in serum). […]
The following peptide transitions were monitored in the mass spectrometer : […] […]

[1] = tested on: cytokine and chemokine levels; experiment: RESPIRE Phase 2 trial, cytokines/chemokines in hospitalized COVID-19 patients (MesoScale V-Plex); type: in vivo, human; settings: vs placebo
Source text: For standard of care treatment see Supplementary Table 5 .

HCoV 229E = experiment: Virus yield reduction assay, HCoV-229E on MRC-5 cells (RT-qPCR); type: cell-based; settings: Human coronavirus 229E, MRC5, MOI 0.001, 48 h
Procedure: The virus yield reduction assay of HCoV-229E and HCoV-OC43 was performed on MRC-5 cells seeded at 1.5x10^5 cells per well in 24-well plates 24 h prior infection with HCoV-229E (MOI 0.001) or HCoV-OC43 (MOI 0.1) for 1 h. The inoculum was completely removed, and the cells were treated with different concentrations of zapnometinib (50 µM to 0.006 µM) and a solvent control in Iscove’s Modified Dulbecco’s Medium (IMDM) containing 2% FBS, 1% Penicillin/Streptomycin at 34°C, 5% CO2 for 24 h (HCoV-OC43) or 48 h (HCoV-229E). Supernatants were harvested and the viral titer was determined by a real-time one-step multiplex RT-qPCR using specific primers targeting the N and NS2 genes for HCoV-229E and HCoV-OC43 respectively ( Supplementary Table 1 ) EC50 values were calculated based on the measured viral titers normalized to the solvent control (1% DMSO) and using the “log(inhibitor) vs. response - Variable slope (four parameters)” analysis in GraphPad Prism v9.

SARS-CoV-1 = experiment: microbe, parasite or virus in culture; type: cell-based, SARS-CoV-1 (SARS-CoV-HKU-39849); settings: Severe acute respiratory syndrome coronavirus, Vero

## O=C(O)c1ccc(F)c(F)c1Nc1ccc(I)cc1Cl [zapnometinib]
Vero cells; 0.39 µM
  %LDH release compared to maximum LDH release: 0.35%
Vero cells; 0.78 µM
  %LDH release compared to maximum LDH release: 0.41%
Vero cells; 1.56 µM
  %LDH release compared to maximum LDH release: 0.41%
Vero cells; 3.13 µM
  %LDH release compared to maximum LDH release: -0.37%
Vero cells; 6.25 µM
  %LDH release compared to maximum LDH release: 0.02%
Vero cells; 12.50 µM
  %LDH release compared to maximum LDH release: 0.31%
Vero cells; 25.00 µM
  %LDH release compared to maximum LDH release: 0.12%
Vero cells; 50.00 µM
  %LDH release compared to maximum LDH release: 0.49%
Vero cells; 75.00 µM
  %LDH release compared to maximum LDH release: 0.83%
Vero cells; 100.00 µM
  %LDH release compared to maximum LDH release: 1.44%
HMGB1, GLDH, SELP; 0 dpi vs 4 dpi, 100 mg/kg then 75 mg/kg from +4 or +24 h p.i.
  levels of safety biomarkers HMGB1, GLDH, SELP in serum: no prominent changes
HMGB1, GLDH, SELP; 100 mg/kg followed by 75 mg/kg beginning at +4 or +24 h p.i.
  toxicity of the treatment regimen: not toxic
[1]; up to day 30
  IL-8/CXCL-8 levels: slight but not statistically significant increase
  TNF-α levels: no changes
[1]; up to day 30, 900 mg D1 then 600 mg daily D2-6, p = <0.0001
  MCP-1 levels: significant reduction
[1]; up to day 30, p = 0.0017
  IL-6 levels: significantly reduced
[1]; up to day 30, p = <0.0001
  IFNγ levels: significant reduction
  MIP-1α levels: significant reduction
HCoV 229E
  EC50: 26.6 µM and 10.9 µg/mL
SARS-CoV-1
  EC50: 33.6 µM and 13.8 µg/mL
